From US10023652B2, “Method of targeting glycoproteins to treat cancer” (Board of Regents of the University of Nebraska, priority 2013, dated 2018) come the findings set out here.

The test concerns phosphorylation of Akt (S473). The experiment in a line: Treatment of Capan-1 Cosmc KO cells with HER2 inhibitor, Akt phosphorylation by immunoblotting. In kind it is cell-based, human. Particulars: 24 h, FIG. 9B.

With `COCC(=O)NC/C=C/c1ccc2ncnc(Nc3ccc(Oc4ccc(C)nc4)c(C)c3)c2c1` [CP724714], the “phosphorylation of Akt” value is given as “decreases the phosphorylation of Akt in a dose dependent manner”.
